Experiments:
human factor XIa = human factor XIa (Homo sapiens (Human), UniProt P03951); assay: Measurement of FXIa inhibition (fluorogenic peptide substrate Boc-Glu(OBzl)-Ala-Arg-AMC); type: biochemical; conditions: factor XIa from Kordia 0.45 nM, 15 min preincubation, 30 min at 22° C., fluorescence
Method: a.1) Measurement of FXIa Inhibition
(§1) The factor XIa inhibition of the substances according to the invention is determined using a biochemical test system which utilizes the reaction of a peptidic factor XIa substrate to determine the enzymatic activity of human factor XIa. Here, factor XIa cleaves from the peptic factor XIa substrate the C-terminal aminomethylcoumarin (AMC), the fluorescence of which is measured. The determinations are carried out in microtitre plates.
In each case 1 μl of the diluted substance solutions is placed into the wells of white microtitre plates from Greiner (384 wells). 20 μl of assay buffer (50 mM of Tris/HCl pH 7.4; 100 mM of sodium chloride; 5 mM of calcium chloride; 0.1% of bovine serum albumin) and 20 μl of factor XIa from Kordia (0.45 nM in assay buffer) are then added successively. After 15 min of incubation, the enzyme reaction is started by addition of 20 μl of the factor XIa substrate Boc-Glu(OBzl)-Ala-Arg-AMC dissolved in assay buffer (10 μM in assay buffer) from Bachem, the mixture is incubated at room temperature (22° C.) for 30 min and fluorescence is then measured (excitation: 360 nm, emission: 460 nm). The measured emissions of the test batches with test substance are compared to those of control batches without test substance (only dimethyl sulphoxide instead of test substance in dimethyl sulphoxide), and IC50 values are calculated from the concentration/activity relationships.

human plasma kallikrein = human plasma kallikrein (Homo sapiens (Human), UniProt P03952); assay: Determination of the plasma kallikrein activity (fluorogenic substrate H-Pro-Phe-Arg-AMC); type: biochemical; conditions: plasma kallikrein from Kordia 0.6 nM, 15 min preincubation, 30 min at 22° C., fluorescence
Method: a.5) Determination of the Plasma Kallikrein Activity
as §1, with “To determine the plasma kallikrein” for “The factor XIa”, “invention,” for “invention is determined using”, “system is used” for “system”, “plasma kallikrein” for “factor XIa”, “plasma kallikrein.” for “factor XIa.”
In each case 1 μl of the diluted substance solutions is placed into the wells of white microtitre plates from Greiner (384 wells). 20 μl of assay buffer (50 mM Tris/HCl pH 7.4; 100 mM sodium chloride solution; 5 mM of calcium chloride solution; 0.1% of bovine serum albumin) and 20 μl of plasma kallikrein from Kordia (0.6 nM in assay buffer) are then added successively. After 15 min of incubation, the enzyme reaction is started by addition of 20 μl of the substrate H-Pro-Phe-Arg-AMC dissolved in assay buffer (10 μM in assay buffer) from Bachem, the mixture is incubated at room temperature (22° C.) for 30 min and fluorescence is then measured (excitation: 360 nm, emission: 460 nm). The measured emissions of the test batches with test substance are compared to those of control batches without test substance (only dimethyl sulphoxide instead of test substance in dimethyl sulphoxide), and IC50 values are calculated from the concentration/activity relationships.

Sequence of human plasma kallikrein (P03952 391-638): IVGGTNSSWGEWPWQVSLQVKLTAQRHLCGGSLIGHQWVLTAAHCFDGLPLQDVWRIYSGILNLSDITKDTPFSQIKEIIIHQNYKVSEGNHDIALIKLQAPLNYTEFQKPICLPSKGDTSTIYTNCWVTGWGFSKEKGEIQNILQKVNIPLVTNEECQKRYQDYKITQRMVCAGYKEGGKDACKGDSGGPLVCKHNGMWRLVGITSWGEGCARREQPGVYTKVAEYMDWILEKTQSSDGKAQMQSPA
Sequence of human plasma kallikrein (P03952 20-390 partner): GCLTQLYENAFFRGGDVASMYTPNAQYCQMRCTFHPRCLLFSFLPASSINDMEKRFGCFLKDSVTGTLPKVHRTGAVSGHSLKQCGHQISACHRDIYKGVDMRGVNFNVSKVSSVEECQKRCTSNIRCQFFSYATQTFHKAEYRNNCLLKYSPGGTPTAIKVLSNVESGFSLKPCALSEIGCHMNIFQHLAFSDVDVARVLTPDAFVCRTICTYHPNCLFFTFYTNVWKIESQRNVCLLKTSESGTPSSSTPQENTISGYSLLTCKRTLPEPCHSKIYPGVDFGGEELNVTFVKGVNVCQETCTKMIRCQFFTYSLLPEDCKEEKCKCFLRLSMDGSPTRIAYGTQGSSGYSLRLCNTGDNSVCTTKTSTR
Sequence of human factor XIa (P03951 388-625): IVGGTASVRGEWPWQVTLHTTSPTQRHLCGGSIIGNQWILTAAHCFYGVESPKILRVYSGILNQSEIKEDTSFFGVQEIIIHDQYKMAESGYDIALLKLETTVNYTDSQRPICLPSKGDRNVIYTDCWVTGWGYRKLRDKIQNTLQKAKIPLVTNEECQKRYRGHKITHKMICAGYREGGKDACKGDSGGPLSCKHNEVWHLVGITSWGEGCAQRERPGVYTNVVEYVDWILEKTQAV
Sequence of human factor XIa (P03951 19-387 partner): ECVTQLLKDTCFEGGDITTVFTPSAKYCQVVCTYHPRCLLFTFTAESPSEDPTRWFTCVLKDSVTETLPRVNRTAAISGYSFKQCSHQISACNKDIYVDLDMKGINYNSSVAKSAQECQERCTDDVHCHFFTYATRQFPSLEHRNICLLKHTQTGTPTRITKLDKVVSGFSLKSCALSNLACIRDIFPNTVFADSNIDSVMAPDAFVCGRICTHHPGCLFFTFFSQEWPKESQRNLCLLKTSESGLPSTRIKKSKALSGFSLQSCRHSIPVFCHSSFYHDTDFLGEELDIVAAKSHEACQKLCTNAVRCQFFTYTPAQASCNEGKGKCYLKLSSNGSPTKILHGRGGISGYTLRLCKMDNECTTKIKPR

Row | SMILES | IC50 (human factor XIa) [nM] | IC50 (human plasma kallikrein) [nM]
1 | COc1cn(C(Cc2cocn2)C(=O)Nc2ccc3nccn3c2)c(=O)cc1-c1cc(Cl)ccc1C#N (racemic) [Example 32, 2-[4-(5-Chloro-2-cyanophenyl)-5-methoxy-2-oxopyridin-1(2H)-yl]-N-(imidazo[1,2-a]pyridin-6-yl)-3-(1,3-oxazol-4-yl)propanamide (racemate)] | 92 | 
2 | N#Cc1ccc(Cl)cc1-c1cc(=O)n(C(Cc2cnco2)C(=O)Nc2ccc3nccn3c2)cc1OC(F)F (racemic) [Example 31, 2-[4-(5-Chloro-2-cyanophenyl)-5-(difluoromethoxy)-2-oxopyridin-1(2H)-yl]-N-(imidazo[1,2-a]pyridin-6-yl)-3-(1,3-oxazol-5-yl)propanamide (racemate)] | 500 | 970
3 | N#Cc1ccc(Cl)cc1-c1cc(=O)n(C(Cc2cocn2)C(=O)Nc2ccc3nccn3c2)cc1Cl (racemic) [Example 33, 2-[5-Chloro-4-(5-chloro-2-cyanophenyl)-2-oxopyridin-1(2H)-yl]-N-(imidazo[1,2-a]pyridin-6-yl)-3-(1,3-oxazol-4-yl)propanamide (racemate)] | 310 | 250
4 | N#Cc1ccc(Cl)cc1-c1cc(=O)n(C(Cc2cnco2)C(=O)Nc2ccc3nccn3c2)cc1Cl (racemic) [Example 30, 2-[5-Chloro-4-(5-chloro-2-cyanophenyl)-2-oxopyridin-1(2H)-yl]-N-(imidazo[1,2-a]pyridin-6-yl)-3-(1,3-oxazol-5-yl)propanamide (racemate)] | 96 | 120
5 | O=C(Cn1cc(Cl)c(-c2cc(Cl)ccc2OC(F)F)cc1=O)Nc1ccc2nc(C(=O)O)cn2c1 [Example 8, 6-[({5-Chloro-4-[5-chloro-2-(difluoromethoxy)phenyl]-2-oxopyridin-1(2H)-yl}acetyl)amino]imidazo[1,2-a]pyridine-2-carboxylic acid] | 380 | 
6 | COCCC(C(=O)Nc1ccn2nccc2c1)n1cc(OC)c(-c2cc(Cl)ccc2C#N)cc1=O (single isomer, unassigned; enantiomer 1) [Example 36, 2-[4-(5-Chloro-2-cyanophenyl)-5-methoxy-2-oxopyridin-1(2H)-yl]-4-methoxy-N-(pyrazolo[1,5-a]pyridin-5-yl)butanamide (enantiomer 1)] |  | 3.2
